Data taken from ChEMBL document CHEMBL1201862, “PubChem BioAssay data set” (2004).
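Grown in 96-well plates, cells were treated for 48 hours with each compound at five concentrations. Insufficient inhibition: endpoint recorded as highest concentration tested. At the GI50, growth is halved.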 Activity calls are given as the source filed them. Rule as the data show it: active = GI50 up to about 1.1 µM and inactive = higher. Where a SMILES comes first, the peptide text is derived from it. The star is where a group is joined. Cbz = O=C(OCc1ccccc1)*

Legend:
Test in all cases: DTP human tumour cell line panel, 48 h
[1] = tested on: A549
[2] = tested on: ACHN
[3] = tested on: Hs-578T
[4] = tested on: IGROV-1
[5] = tested on: KM12
[6] = tested on: M14
[7] = tested on: MCF7
[8] = tested on: Malme-3M
[9] = tested on: NCI-H460
[10] = tested on: OVCAR-3
[11] = tested on: OVCAR-4
[12] = tested on: OVCAR-8
[13] = tested on: PC-3
[14] = tested on: RPMI-8226
[15] = tested on: SF-295
[16] = tested on: U-251
[17] = tested on: HL-60
[18] = tested on: NCI-H23
[19] = tested on: SNB-19

Measured: GI50

Cc1ccc(S(=O)(=O)N2CC3OC(C)(C)OC3C2CO)cc1 (stereo not given)
inactive: [1] > 100 µM | [2] > 100 µM | [3] > 100 µM | [4] > 100 µM | [5] > 100 µM | [6] > 100 µM | [7] > 100 µM | [8] > 100 µM | [9] > 100 µM | [10] > 100 µM | [11] > 100 µM | [12] > 100 µM | [13] > 100 µM | [14] > 100 µM | [15] > 100 µM | [16] > 100 µM

CN(C(=O)C12C3C4(C(=O)O)C1(C(=O)N(C)C(C)(C)C)C1C2(C(=O)O)C3(C(=O)N(C)C(C)(C)C)C14C(=O)N(C)C(C)(C)C)C(C)(C)C (stereo not given)
inactive: [1] > 100 µM | [2] > 100 µM | [17] > 100 µM | [3] > 100 µM | [4] > 100 µM | [5] > 100 µM | [6] > 100 µM | [7] > 100 µM | [18] > 100 µM | [9] > 100 µM | [10] > 100 µM | [11] > 100 µM | [12] > 100 µM | [13] > 100 µM | [15] > 100 µM | [19] > 100 µM | [16] > 100 µM

CCOC(=O)CNC(=O)C(C)NC(=O)C(NC(=O)OCc1ccccc1)C(C)C (stereo not drawn) (Cbz-Val-Ala-Gly-OEt; configuration not given here)
inactive: [1] > 100 µM | [2] > 100 µM | [3] > 100 µM | [4] > 100 µM | [5] > 100 µM | [6] > 100 µM | [7] > 100 µM | [8] > 100 µM | [18] > 100 µM | [9] > 100 µM | [10] > 100 µM | [12] > 100 µM | [13] > 100 µM | [14] > 100 µM | [15] > 100 µM | [19] > 100 µM | [16] > 100 µM

CC(C)(C)OC(=O)N1C[C@H](CC(=O)OCc2ccccc2)C[C@H]1C(=O)OCC(Cl)(Cl)Cl
inactive: [1] 4.69 µM | [2] 5.01 µM | [17] 2.68 µM | [3] 8.69 µM | [5] 2.76 µM | [6] 6.46 µM | [7] 3.11 µM | [8] 6.28 µM | [18] 4.49 µM | [9] 11.2 µM | [10] 3.43 µM | [11] 3.95 µM | [12] 6.07 µM | [13] 2.17 µM | [15] 2.38 µM | [19] 7.74 µM | [16] 2.56 µM

CCOC(=O)N/N=C(\CC)OCC
inactive: [1] > 100 µM | [2] > 100 µM | [17] > 100 µM | [3] > 100 µM | [4] > 100 µM | [5] > 100 µM | [6] > 100 µM | [7] > 100 µM | [8] > 100 µM | [9] > 100 µM | [10] > 100 µM | [12] > 100 µM | [13] > 100 µM | [15] > 100 µM | [19] > 100 µM

O=c1nc2n(CCO)c(-c3ccccc3)c(-c3ccccc3)nc-2c(=O)[nH]1
inactive: [1] > 100 µM | [2] > 100 µM | [3] > 100 µM | [4] > 100 µM | [5] > 100 µM | [6] > 100 µM | [7] > 100 µM | [8] > 100 µM | [18] > 100 µM | [9] > 100 µM | [10] > 100 µM | [11] > 100 µM | [12] > 100 µM | [13] > 100 µM | [14] > 100 µM | [15] > 100 µM | [19] > 100 µM | [16] > 100 µM

CC(C)CC(=O)CC(O)C(Cl)(Cl)Cl (stereo not given)
inactive: [1] > 100 µM | [2] > 100 µM | [3] 56.2 µM | [4] > 100 µM | [5] > 100 µM | [6] > 100 µM | [7] > 100 µM | [8] 20.7 µM | [18] > 100 µM | [10] > 100 µM | [11] > 100 µM | [12] > 100 µM | [13] > 100 µM | [14] > 100 µM | [15] > 100 µM | [19] > 100 µM | [16] > 100 µM

COC1CC(OC2CCC3(C)C(CCC45CCC(C6=CC(=O)OC6)C(C)(CCC43)C5=O)C2)OC(C)C1O (stereo not given)
inactive: [1] 28.5 µM | [2] 22.1 µM | [17] 18.8 µM | [3] 28.2 µM | [4] 38.7 µM | [5] 64.4 µM | [6] > 100 µM | [7] 50.7 µM | [18] 22.5 µM | [9] 18 µM | [10] 27.7 µM | [12] 55.8 µM | [13] 39.3 µM | [14] > 10 µM | [15] 33.9 µM | [19] 20.3 µM | [16] 46.2 µM

O=C1OC(=O)c2cc(S(=O)(=O)c3ccc4c(c3)C(=O)OC4=O)ccc21
inactive: [1] > 100 µM | [2] > 100 µM | [3] > 100 µM | [4] > 100 µM | [5] > 100 µM | [6] > 100 µM | [7] > 100 µM | [8] 24.1 µM | [18] > 100 µM | [9] > 100 µM | [10] > 100 µM | [11] > 100 µM | [12] > 100 µM | [13] > 100 µM | [14] > 100 µM | [15] > 100 µM | [19] > 100 µM | [16] > 100 µM

COc1ccc(N2C(=O)C3c4[nH]c5c(C)cccc5c4C4CCC(c5ccccc5)CC4C3C2=O)cc1 (stereo not given)
inactive: [1] 8.57 µM | [2] 19.7 µM | [3] 12.4 µM | [4] 13.7 µM | [5] 12.6 µM | [6] 11.9 µM | [7] 6.28 µM | [18] 24.7 µM | [9] 5.68 µM | [10] 24.8 µM | [11] 11.1 µM | [12] 15.6 µM | [13] 12.1 µM | [14] 7.55 µM | [15] 17.5 µM | [19] 21.9 µM | [16] 8.43 µM

NC(=O)C(N)CC12CC3CC(CC(C3)C1)C2 (stereo not given)
inactive: [1] 45.6 µM | [2] 32.4 µM | [3] 19.1 µM | [4] > 10 µM | [5] 20.1 µM | [6] 19.3 µM | [7] 20 µM | [18] 25.4 µM | [9] 34.4 µM | [11] 17.5 µM | [12] 23.9 µM | [13] 18.2 µM | [14] 19.6 µM | [15] 23.3 µM | [19] 23.7 µM | [16] 17.5 µM
